Here are results for twelve compounds from patent US6794402B2, “Bicyclic cyclohexylamines and their use as NMDA receptor antagonists” (Warner-Lambert Company, priority 2000, dated 2004).

Data set [1] addresses NR1A/NR2B NMDA receptor (Rattus norvegicus, UniProt P35439+Q00960). Description: Electrophysiological assay at NMDA receptor subunits expressed in Xenopus oocytes. It counts as cell-based. The note with it: cloned rat NR1A/NR2B in Xenopus oocytes, two-electrode voltage clamp, glutamate 100 μM + glycine 1-100 μM; read-out: NR1A/NR2B Oocyte IC50. The source says: Preparation of RNA. cDNA clones encoding the NR1A, NR2A, NR2B, and NR2C rat NMDA receptor subtypes were used (see, Moriyoshi, supra., 1991; Kutsuwada et al., supra., 1992; Monyer et al., supra, 1992; Ikeda et al., FEBS Lett., 1992;313:34-38; Ishii et al., J. Biol. Chem., 1993;268:2836-2843 for details of these clones or their mouse homologs). The clones were transformed into appropriate host bacteria and plasmid preparations were made with conventional DNA purification techniques. A sample of each clone linearized by restriction enzyme digestion […] was synthesized with T3 RNA polymerase. The cRNA was diluted to 400 ng/μL and stored in 1-μL aliquots at −80° C. until injection.
The Xenopus oocyte expression system. Mature female Xenopus laevis were anaesthetized (20-40 minutes) using 0.15% 3-aminobenzoic acid ethyl ester (MS-222), and 2 to 4 ovarian lobes were surgically removed. Oocytes at developmental stages IV-VI (Dumont J. N., J. Morphol., 1972;136:153-180) were dissected from the ovary still surrounded by enveloping ovarian tissues. Follicle-enclosed oocytes were microinjected with 1:1 mixtures of NR1A:NR2A, 2B or 2C; injecting 1 to 10 ng of RNA encoding each receptor subunit. NR1A encoding RNA was injected alone at ˜20 ng. Oocytes were stored in Barth's medium containing (in mM): NaCl, 88; KCl, 1; CaCl2, 0.41; Ca (NO3)2, 0.33; MgSO4, 0.82; NaHCO3, 2.4; HEPES 5; pH 7.4, with 0.11 mg/mL gentamicin sulphate. While oocytes were still surrounded by enveloping ovarian tissues, the Barth's medium was supplemented with 0.1% bovine serum. Oocytes were defolliculated 1 to 2 days following injections by treatment with collagenase (0.5 mg/mL Sigma Type I for 0.5-1 hr)-(Miledi and Woodward, J. Phsyiol., (Lond) 1989;416:601-621) and subsequently stored in serum-free medium.
Electrical recordings were made using a conventional two-electrode voltage clamp (Dagan TEV-200) over periods ranging between 3 to 21 days following injection (Woodward et al., Mol. Pharmacol., 1992;41:89-103). Oocytes were placed in a 0.1-mL recording chamber continuously perfused (5 mL-15 mL min^−1) with frog Ringer's solution containing (in mM): NaCl, 115; KCL, 2; BaCl2, 1.8; HEPES, 5; and pH 7.4. Drugs were applied by bath perfusion. Using oocytes expressing different subunit combinations of NMDA receptor, NMDA currents were activated by co-application of glutamate (100 μM) and glycine (1-100 μM). Inhibitory potency of the novel antagonists was assessed on responses elicited by fixed concentrations of glutamate and glycine, by measuring reductions in current induced by progressively increasing concentrations of antagonist.
Concentration-inhibition curves were fit with Equation 1.
I/Icontrol=1/(1+([antagonist]/10−^pIC50)^n) Eq. 1
In which Icontrol is the current evoked by agonists alone, pIC50=−log IC50, IC50 is the concentration of antagonist that produced half maximal inhibition, and n is the slope factor (De Lean et al., Am. J. Physiol., 1978;235:E97-102). For incomplete curves, analysis by fitting was unreliable and IC50 values were calculated by simple regression over linear portions of the curves (Origin: Microcal Software).
(Two-electrode voltage clamp holds a large cell at a set potential and records current.)

Data set [2] deals with T1, [3H]ifenprodil binding site, rat forebrain membranes (Rattus norvegicus, UniProt P35439+Q00960).
T1 construct: membrane fraction was prepared from frozen adult rat forebrains; tissue Zivic-Miller Laboratories, Inc; host or cells: adult rat forebrain, washed buffy coat membrane fraction
T1 sequence (Q00960 27-1482, other chains not shown): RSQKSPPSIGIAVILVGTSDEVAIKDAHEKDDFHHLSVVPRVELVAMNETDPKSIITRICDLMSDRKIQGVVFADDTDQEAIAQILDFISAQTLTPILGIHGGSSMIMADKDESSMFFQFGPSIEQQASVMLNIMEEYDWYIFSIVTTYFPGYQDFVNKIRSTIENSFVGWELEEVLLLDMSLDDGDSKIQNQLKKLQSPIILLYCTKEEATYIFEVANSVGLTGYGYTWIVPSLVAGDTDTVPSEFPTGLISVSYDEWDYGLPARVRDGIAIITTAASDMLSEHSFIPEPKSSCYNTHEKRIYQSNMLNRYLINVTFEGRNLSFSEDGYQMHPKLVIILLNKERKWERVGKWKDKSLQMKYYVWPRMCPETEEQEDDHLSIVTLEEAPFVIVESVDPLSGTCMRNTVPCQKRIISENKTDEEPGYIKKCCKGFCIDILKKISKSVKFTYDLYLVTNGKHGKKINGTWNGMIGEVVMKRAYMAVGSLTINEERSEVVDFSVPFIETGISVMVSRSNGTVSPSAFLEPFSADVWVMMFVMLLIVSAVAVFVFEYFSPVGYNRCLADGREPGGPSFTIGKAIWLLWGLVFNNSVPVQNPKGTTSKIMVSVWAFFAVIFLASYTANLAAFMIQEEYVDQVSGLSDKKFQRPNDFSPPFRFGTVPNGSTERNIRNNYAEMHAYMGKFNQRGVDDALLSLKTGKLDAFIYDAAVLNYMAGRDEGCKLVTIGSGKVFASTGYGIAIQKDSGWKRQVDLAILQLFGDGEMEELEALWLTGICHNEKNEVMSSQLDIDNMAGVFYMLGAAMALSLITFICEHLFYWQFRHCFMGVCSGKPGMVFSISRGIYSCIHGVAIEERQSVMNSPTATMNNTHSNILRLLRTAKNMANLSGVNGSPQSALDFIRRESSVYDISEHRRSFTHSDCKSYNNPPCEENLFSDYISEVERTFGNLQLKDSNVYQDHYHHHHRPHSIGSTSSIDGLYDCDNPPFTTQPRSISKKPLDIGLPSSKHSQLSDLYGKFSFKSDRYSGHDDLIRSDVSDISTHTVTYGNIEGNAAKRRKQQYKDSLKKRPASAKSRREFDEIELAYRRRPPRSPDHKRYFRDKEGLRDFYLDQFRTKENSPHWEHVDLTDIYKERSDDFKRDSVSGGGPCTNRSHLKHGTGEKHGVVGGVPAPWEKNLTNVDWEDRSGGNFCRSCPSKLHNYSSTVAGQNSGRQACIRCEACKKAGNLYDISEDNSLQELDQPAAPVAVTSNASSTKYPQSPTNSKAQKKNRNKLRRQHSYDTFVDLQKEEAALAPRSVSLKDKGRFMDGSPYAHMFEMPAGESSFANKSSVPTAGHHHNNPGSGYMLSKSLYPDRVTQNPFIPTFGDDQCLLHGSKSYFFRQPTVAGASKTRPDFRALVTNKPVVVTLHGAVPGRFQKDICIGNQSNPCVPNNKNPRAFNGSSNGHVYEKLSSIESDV
Description: [3H]Ifenprodil binding assay. The following applies: 4 nM [3H]-ifenprodil, 2 hours at room temperature. The procedure: All buffers and reagents used in assay incubations or to dissolve drugs were prepared using water purified through a Milli-Q reverse osmosis system (Millipore Corp, Bedford, Mass.) and treated with UV emissions. Prior to use in the assays, buffers were further filtered through a sterile Corning filtration unit (Corning Glass Works, Corning, N.Y.) containing a 0.2-micron filter. Buffer used to rinse the membranes on the assay filters was prepared with purified water, but was not refiltered and was stored no longer than 5 days. Stock solutions of the drugs (usually 10 mM) were dissolved in 20 mM HEPES-KOH buffer pH 7.4 (assay buffer) with the addition of 1 to 5 μL of glacial AcOH, if needed to keep them in solution. For eliprodil the stock solution was buffered with the addition of 10% DMSO. All subsequent dilutions from stock were made in buffer.
An extensively washed buffy coat membrane fraction was prepared from frozen adult rat forebrains (Zivic-Miller Laboratories, Inc., Zelienople, Pa.) as described previously (Coughenour L. L., Cordon, J. J., J. Pharmacol. Exp. Ther., 1997;280:584-592) and stored at −80° C. On the day of the assay, pellets were resuspended in 35 mL of assay buffer at pH 7.4 using a Polytron setting 6. After incubation at 37° C. for 30 minutes in a shaking water bath, the homogenate was centrifuged 40,000×g for 10 minutes at 4° C. The pellets were resuspended in fresh buffer and centrifuged 3 more times before final suspension for use in the assay.
[^3H]Ifenprodil Binding. Triplicate incubations were carried out in a volume of 0.5 mL in 1.3 mL polypropylene tubes (Marsh Biomedical Products Inc., Rochester, N.Y.) for 2 hours at room temperature. Incubations contained test agents, membranes (100-200 μg protein) and 4 nM[^3H]-ifenprodil in 20 mM HEPES-KOH buffer, pH 7.4 (assay buffer). Assays were started by addition of the membranes. Bound radioligand was separated by filtration under reduced pressure using a Tomtec Mach II, 96-well cell harvester (Tomtec Inc., Orange, Colo.). Filtration was through Whatman GF/B glass fiber filters (Whatman Ltd, Maidstone, England), which had been soaked for at least 15 minutes in 0.3% polyethylenimine and allowed to air dry. The filters were rinsed with 3 mL of ice cold assay buffer within 6 seconds. Air was allowed to pass through the filters for an additional 10 seconds to remove residual moisture. The filter mat was supported on a cold (−20° C.) teflon support, and filters from individual wells were separated and placed in Mini Poly-Q vials (Beckman Instruments Inc., Fullerton, Calif.) and filled with 4 mL of scintillation cocktail (Beckman Ready Protein^+). Radioactivity retained on the filter was determined by liquid scintillation spectrophotometry. Nonspecific binding was defined as the binding in the presence of 1 mM ifenprodil. Specific binding was 90%.
Data analysis. Binding curves were statistically analyzed for a best one or two site competition fit using GraphPad Prism software (GraphPad Software Inc., San Diego, Calif.). The normalized data was fit by nonweighted nonlinear regression to either [formula]
Control data was entered as 100%, and no parameters were constrained. Inhibition curves were compared by ANOVA with post test comparisons of the logIC50 using Dunnett's multiple comparisons post test or Student's nonpaired, two-tailed t-test (GraphPad InStat software).

For data set [3], the system named is 6-Hydroxydopamine-lesioned rats. Put plainly: 6-OHDA lesioned rat assay. Type of data set: in vivo. The following applies: for 6-OHDA MED: minimum effective dose to potentiate contraversive rotation induced by L-DOPA methyl ester 10 mg/kg SC, 6-hour period; for 6-OHDA active/inactive at the given dose: statistically significant increase in contraversive rotations vs L-DOPA only. The method, then:
6-Hydroxydopamine-lesioned rats were used (see Ungerstedt U., Arbuthnott G. W., Quantitative recording of rotational behavior in rats after 6-hydroxy-dopamine lesions of the nigrostraiatal dopamine system. Brain Res., 1971;24(3):485-93). Adult male Sprague-Dawley rats were anesthetized with chloral hydrate and unilateral lesions of the nigrostriatal dopamine system were accomplished by infusion of 8 μg of 6-hydroxydopamine HBr (6-OHDA) into the right medial forebrain bundle. Rats were pretreated 30 minutes before surgery with desipramine HCl 25 mg/kg intraperitoneally (IP) to protect noradrenegic neurons, and pargyline 25 mg/kg IP to potentiate the effects of 6-OHDA. A minimum of 3 weeks after surgery, the rotational behavior induced by apomorphine HCL 50 μg/kg subcutaneously (SC) was assessed.
Rotational behavior was measured using an automatic rotometer system (Rotorat Rotational Activity System, MED Associates, Georgia, Vt.). Anti-parkinsonian activity was assessed as the ability of the compound to potentiate the contraversive rotation induced by L-DOPA methyl ester, 10 mg/kg SC, over a 6-hour period. Experiments were conducted using a crossover paradigm where each rat received either a vehicle plus L-DOPA, or the test compound plus L-DOPA, in randomized order. Rats were tested at 7-day intervals. In experiments in which the compound was tested orally, rats were food deprived for 16 hours. Statistical analysis between treatment groups were performed using a paired t-test. The results were reported in Table 1 as the minimum effective dose (MED) of compound (mg/kg) required to produce a statistically-significant increase in total contraversive rotations compared to rats receiving L-DOPA only.

NR1A/NR2B NMDA receptor, sequence (Q00960 27-1482, other chains not shown): as above

Turning to `C[C@H](N[C@H]1CC[C@H](c2ccc3[nH]c(=O)oc3c2)CC1)[C@H](O)c1ccccc1` (stereo in doubt) [Example 12, 6-{trans-4-[(1S,2R)-2-Hydroxy-1-methyl-2-phenylethylamino]cyclohexyl}-3H-benzoxazol-2-one], the IC50 in data set [1] came out at 70000 nM; in data set [2] it was 22500 nM.

For `O=c1[nH]c2ccc([C@H]3CC[C@H](NCCSc4ccccc4)CC3)cc2o1` [Example 5a, 6-[trans-4-(2-Phenylsulfanylethylamino)cyclohexyl]-3H-benzoxazol-2-one], the IC50 in data set [1] stood at 20 nM; in data set [2], 4 nM.

As to `O=c1[nH]c2ccc(C3=CCC(NCCCc4ccccc4)CC3)cc2o1` (stereo not drawn) [Example 6, 6-[4-(3-Phenylpropylamino)cyclohex-1-enyl]-3H-benzoxazol-2-one], the melting point was 293 to 295 °C. This compound also displayed an IC50 in data set [2] of 9 nM.

With `O=c1[nH]c2ccc([C@H]3CC[C@H](NCCSc4ccc(F)cc4)CC3)cc2o1` [Example 8, 6-{trans-4-[2-(4-Fluorophenylsulfanyl)ethylamino]cyclohexyl}-3H-benzoxazol-2-one], the IC50 in data set [1] amounted to 20 nM.

The compound `CN(CCCc1ccccc1)[C@H]1CC[C@H](c2ccc3[nH]c(=O)oc3c2)CC1` [Example 17, 6-{trans-4-[Methyl(3-phenylpropyl)amino]cyclohexyl}-3H-benzoxazol-2-one] came in with a melting point of 58 to 62 °C. In data set [2], the IC50 stood at 10 nM. Further, in data set [3], the “6-OHDA MED” value is listed as 10 mg/kg and the “6-OHDA active/inactive at the given dose” value was “active”.

Turning to `CN(CCSc1ccc(F)cc1)[C@H]1CC[C@H](c2ccc3[nH]c(=O)oc3c2)CC1` [Example 20, 6-{trans-4-[2-(4-Fluorophenylsulfanylethyl)methylamino]cyclohexyl}-3H-benzoxazol-2-one], in data set [2], the IC50 came out at 25 nM. In data set [3], the “6-OHDA MED” value was determined as 30 mg/kg and the “6-OHDA active/inactive at the given dose” value is recorded as “active”.

With `Cc1ccc(CCCN(C)[C@H]2CC[C@H](c3ccc4[nH]c(=O)oc4c3)CC2)cc1` [Example 21, 6-{trans-4-[Methyl-3-(p-Tolylpropyl)amino]cyclohexyl}-3H-benzoxazol-2-one], the IC50 in data set [2] was 16 nM. In data set [3], the “6-OHDA MED” value is listed as 10 mg/kg and the “6-OHDA active/inactive at the given dose” value was “active”.

`CN(CCOc1ccccc1)[C@H]1CC[C@H](c2ccc3[nH]c(=O)oc3c2)CC1` [Example 22, 6-{trans-4-[Methyl(2-phenoxyethyl)amino]cyclohexyl}-3H-benzoxazol-2-one] had an IC50 in data set [2] of 53 nM. Besides, in data set [3], the “6-OHDA MED” value stood at 10 mg/kg and the “6-OHDA active/inactive at the given dose” value is “active”.

Take `CN(CCCc1ccc(C(F)(F)F)cc1)[C@H]1CC[C@H](c2ccc3[nH]c(=O)oc3c2)CC1` [Example 23, 6-{trans-4-[Methyl-3-(4-Trifluoromethylphenyl)propylamino]cyclohexyl}-3H-benzoxazol-2-one]: the IC50 in data set [2] stood at 38 nM. Also, in data set [3], the “6-OHDA MED” value stood at 10 mg/kg and the “6-OHDA active/inactive at the given dose” value was “active”.

In data set [2], `CCN(CCCc1ccc(F)cc1)[C@H]1CC[C@H](c2ccc3[nH]c(=O)oc3c2)CC1` [Example 25, 6-(trans-4-{Ethyl-[3-(4-fluorophenyl)propyl]amino}cyclohexyl)-3H-benzoxazol-2-one] registered an IC50 of 79 nM. In data set [3], the “6-OHDA MED” value was 10 mg/kg and the “6-OHDA active/inactive at the given dose” value is reported as “active”.

Compound `CC(CCN(C)[C@H]1CC[C@H](c2ccc3[nH]c(=O)oc3c2)CC1)c1ccccc1` (stereo partly drawn) [Example 37b, 6-[trans-4-(Methyl-3-phenylbutylamino)cyclohexyl]-3H-benzoxazol-2-one] gave a melting point of 61 to 70 °C. This compound also showed an IC50 in data set [2] of 32 nM.

`CN(C)c1ccc(CCCN(C)[C@H]2CC[C@H](c3ccc4[nH]c(=O)oc4c3)CC2)cc1` [Example 58, 6-(4-{[3(trans-4-Dimethylaminophenyl)propyl]methylamino}cyclohexyl)-3H-benzoxazol2-one] yielded a melting point of 182 to 184 °C. This compound had an IC50 in data set [2] of 357 nM.

In general, melting point refers to the temperature of the solid-liquid transition.
